What all share (type): in vivo
Assay [1] relates to Lolium perenne (LOLPE). Briefly: Example B post-emergence herbicidal test, LOLPE. The conditions noted are these: Lolium perenne, 312 h, rate 250 g/ha, evaluated after 13 days, scale 0-100, read-out: Post-emergence activity LOLPE (100=total damage to plant; 0=no damage to plant). How it is done:
(§1) Seeds of a variety of test species were sown in standard soil in pots. After cultivation for one day (pre-emergence) or after 8 days cultivation (post-emergence) under controlled conditions in a glasshouse (at 24/16° C., day/night; 14 hours light; 65% humidity), the plants were sprayed with an aqueous spray solution derived from the formulation of the technical active ingredient in acetone/water (50:50) solution containing 0.5% Tween 20 (polyoxyethelyene sorbitan monolaurate, CAS RN 9005-64-5). The test plants were then grown in a glasshouse under controlled conditions in a glasshouse (at 24/16° C., day/night; 14 hours light; 65% humidity) and watered twice daily. After 13 days for pre and post-emergence, the test was evaluated (100=total damage to plant; 0=no damage to plant). Lolium perenne (LOLPE), Alopecurus myosuroides (ALOMY), Echinochloa crus-galli (ECHCG), Avena fatua (AVEFA) Post-Emergence Activity

The subject of assay [2] is Alopecurus myosuroides (ALOMY). As to the kind of experiment: Example B post-emergence herbicidal test, ALOMY. The note with it: Alopecurus myosuroides, 312 h, rate 250 g/ha, evaluated after 13 days, scale 0-100, read-out: Post-emergence activity ALOMY (100=total damage to plant; 0=no damage to plant). As to the method: as §1
For assay [3], the system named is Echinochloa crus-galli (ECHCG). As to the kind of experiment: Example B post-emergence herbicidal test, ECHCG. The note with it: Echinochloa crus-galli, 312 h, rate 250 g/ha, evaluated after 13 days, scale 0-100, read-out: Post-emergence activity ECHCG (100=total damage to plant; 0=no damage to plant). As to the method:
as §1

Assay [4] deals with Avena fatua (AVEFA). Briefly: Example B post-emergence herbicidal test, AVEFA. The conditions noted are these: Avena fatua, 312 h, rate 250 g/ha, evaluated after 13 days, scale 0-100, read-out: Post-emergence activity AVEFA (100=total damage to plant; 0=no damage to plant). As to the method: as §1
For assay [5], the system named is Lolium perenne (LOLPE). Briefly: Example B pre-emergence herbicidal test, LOLPE. The note with it: Lolium perenne, 312 h, rate 250 g/ha, evaluated after 13 days, 100=total damage to plant, 0=no damage to plant. How it is done: as §1, with “Pre-Emergence” for “Post-Emergence”
For assay [6], the system named is Alopecurus myosuroides (ALOMY). Briefly: Example B pre-emergence herbicidal test, ALOMY. The conditions noted are these: Alopecurus myosuroides, 312 h, rate 250 g/ha, evaluated after 13 days, 100=total damage to plant, 0=no damage to plant. How it is done: as §1, with “Pre-Emergence” for “Post-Emergence”
The subject of assay [7] is Echinochloa crus-galli (ECHCG). Briefly: Example B pre-emergence herbicidal test, ECHCG. The note with it: Echinochloa crus-galli, 312 h, rate 250 g/ha, evaluated after 13 days, 100=total damage to plant, 0=no damage to plant. As to the method:
as §1, with “Pre-Emergence” for “Post-Emergence”

In assay [8] the test system is Avena fatua (AVEFA). As to the kind of experiment: Example B pre-emergence herbicidal test, AVEFA. The conditions noted are these: Avena fatua, 312 h, rate 250 g/ha, evaluated after 13 days, 100=total damage to plant, 0=no damage to plant. As to the method:
as §1, with “Pre-Emergence” for “Post-Emergence”

Molecules are shown by their SMILES.

Regarding `Cc1cc(C)c(C2C(=O)CC(CC3C[C@@H]4O[C@H]3[C@@H]3C(=O)NC(=O)[C@@H]34)C2=O)c(C)c1` (relative stereo) [Compound T127], the pest or weed control at 250 g/ha was 20% in assay [1], 20% in assay [2], 20% in assay [3] and 10% in assay [4].

As to `COC1=C(c2c(C)cc(C)cc2C)C(=O)C(CC2CCOCC2)C1` (stereo not shown) [Compound P4], the pest or weed control at 250 g/ha was found to be 30% in assay [1], 60% in assay [2], 20% in assay [3] and 40% in assay [4].

As to `Cc1cc(C)c(C2=C(OC(=O)C(C)(C)C)C/C(=C\C3CCSCC3)C2=O)c(C)c1` [Compound P9], the pest or weed control at 250 g/ha was found to be 40% in assay [5]; 30% in assay [6]; 20% in assay [7]; 0% in assay [8]; 40% in assay [1]; 30% in assay [2]. Moreover, the pest or weed control at 250 g/ha in assay [3] is 50%; in assay [4] it was 10%.

Take `Cc1cc(C)c(C2=C(OC(=O)C3CC3)CC(CC3CCOC3)C2=O)c(C)c1` (stereo not shown) [Compound P14]: the pest or weed control at 250 g/ha is 100% in assay [5]; 100% in assay [6]; 100% in assay [7]; 80% in assay [8]; 100% in assay [1]; 90% in assay [2]. Moreover, the pest or weed control at 250 g/ha in assay [3] and in assay [4] was 90% each time.

As for `Cc1cc(C)c(C2=C(OC(=O)C3CCCCC3)CC(CC3CCOC3)C2=O)c(C)c1` (stereo not shown) [Compound P15], the pest or weed control at 250 g/ha in assay [5] was 100%; in assay [6], 100%; in assay [7] it was 100%; in assay [8], 90%; in assay [1], 100%; in assay [2], 100%. Moreover, the pest or weed control at 250 g/ha in assay [3] came to 100%; in assay [4], 90%.

For `COc1ccc(C(=O)OC2=C(c3c(C)cc(C)cc3C)C(=O)C(CC3CCOC3)C2)cc1` (stereo not shown) [Compound P18], the pest or weed control at 250 g/ha in assay [5] turned out to be 100%; in assay [6], 100%; in assay [7], 90%; in assay [8], 80%; in assay [1] it was 100%; in assay [2], 90%. Further, the pest or weed control at 250 g/ha in assay [3] and in assay [4] was 90% throughout.

`Cc1cc(C)c(C2=C(OC(=O)OCC(C)C)CC(CC3CCOC3)C2=O)c(C)c1` (stereo not shown) [Compound P23]: the pest or weed control at 250 g/ha in assay [5] came to 100%; in assay [6], 100%; in assay [7] it was 100%; in assay [8], 80%; in assay [1] it was 100%; in assay [2] it was 90%. The pest or weed control at 250 g/ha in assay [3] and in assay [4] was 90% throughout.

As to `Cc1cc(C)c(C2=C(OC(=O)OCC(C)(C)C)CC(CC3CCOC3)C2=O)c(C)c1` (stereo not shown) [Compound P24], the pest or weed control at 250 g/ha was determined as 100% in assay [5]; 100% in assay [6]; 90% in assay [7]; 90% in assay [8]; 100% in assay [1]; 90% in assay [2]. Moreover, the pest or weed control at 250 g/ha in assay [3] and in assay [4] was 90% throughout.

`C=CCOC(=O)OC1=C(c2c(C)cc(C)cc2C)C(=O)C(CC2CCOC2)C1` (stereo not shown) [Compound P25]: the pest or weed control at 250 g/ha in assay [5] is 90%; in assay [6], 100%; in assay [7], 90%; in assay [8], 80%; in assay [1], 100%; in assay [2] it was 90%. In addition, the pest or weed control at 250 g/ha in assay [3] was found to be 100%; in assay [4], 90%.

`Cc1cc(C)c(C2=C(OC(=O)Oc3ccccc3)CC(CC3CCOC3)C2=O)c(C)c1` (stereo not shown) [Compound P26]: the pest or weed control at 250 g/ha came to 100% in assay [5]; 100% in assay [6]; 90% in assay [7]; 80% in assay [8]; 100% in assay [1]; 100% in assay [2]. Further, the results for the pest or weed control at 250 g/ha in assay [3] and in assay [4] were 100% and 90%, respectively.

For `Cc1cc(C)c(C2=C(OC(=O)c3ccco3)CC(CC3CCN(C(=O)c4ccco4)C3)C2=O)c(C)c1` (stereo not shown) [Compound P62], the pest or weed control at 250 g/ha was 80% in assay [1], 70% in assay [2], 70% in assay [3] and 70% in assay [4].

For `COC1=C(c2c(C)cc(C)cc2C)C(=O)C/C1=C\C1CCOCC1` [Compound P69], the pest or weed control at 250 g/ha in assay [1] amounted to 40%; in assay [2] it was 0%; in assay [3], 80%; in assay [4], 20%.

Consider `Cc1cc(C)c(C2C(=O)CC(C(O)C3CCSCC3)C2=O)c(C)c1` (stereo not shown) [Compound T6], for which the pest or weed control at 250 g/ha came out at 10% in assay [1], 20% in assay [2], 10% in assay [3] and 0% in assay [4].

Regarding `Cc1cc(C)c(C2C(=O)CC(CC3CCNCC3)C2=O)c(C)c1` (stereo not shown) [Compound T53], the pest or weed control at 250 g/ha in assay [5] came to 40%; in assay [6] it was 30%; in assay [7], 0%; in assay [8] it was 0%.

As for `Cc1ccc(S(=O)(=O)N2CCC(CC3CC(=O)C(c4c(C)cc(C)cc4C)C3=O)CC2)cc1` (stereo not shown) [Compound T109], the pest or weed control at 250 g/ha in assay [5], in assay [6], in assay [7] and in assay [8] was 0% throughout.

As for `Cc1cc(C)c(C2C(=O)CC(CC3CCN(C(=O)/C=C/c4ccccc4)CC3)C2=O)c(C)c1` (stereo not shown) [Compound T116], the pest or weed control at 250 g/ha in assay [1] amounted to 90%; in assay [2] it was 60%; in assay [3], 50%; in assay [4], 90%.

Take `Cc1cc(-c2ccc(C(F)(F)F)cc2)cc(C)c1C1C(=O)C/C(=C\C2CCOCC2)C1=O` (stereo not shown) [Compound T133]: the pest or weed control at 250 g/ha in assay [1] was 0%; in assay [2], 20%; in assay [3] it was 90%; in assay [4] it was 30%.

For the compound `Cc1cc(-c2ccc(C(F)(F)F)cc2)cc(C)c1C1C(=O)CC(CC2CCOCC2)C1=O` (stereo not shown) [Compound T136], the pest or weed control at 250 g/ha was determined as 30% in assay [1], 50% in assay [2], 60% in assay [3] and 70% in assay [4].

In the case of `CCC1(CC2CCOC2)CC(=O)C(c2c(C)cc(C)cc2C)C1=O` (stereo not shown) [Compound T152], the pest or weed control at 250 g/ha in assay [1] turned out to be 30%; in assay [2], 20%; in assay [3], 10%; in assay [4] it was 10%.

In the case of `COCC1(CC2CCOC2)CC(=O)C(c2c(C)cc(C)cc2C)C1=O` (stereo not shown) [Compound T153], the pest or weed control at 250 g/ha in assay [1] amounted to 20%; in assay [2], 10%; in assay [3], 10%; in assay [4] it was 20%.

For the origin of these results see US9096560B2, “5-heterocyclylalkyl-3-hydroxy-2-phenylcyclopent-2-enones as herbicides” (Syngenta Limited, priority 2008, dated 2015).
